# Assay results as given in ChEMBL document CHEMBL4270506, “Recent advances in drug discovery of phototherapeutic non-porphyrinic anticancer agents” (Eur J Med Chem, 2017).
# Tests used:
# [1] = Dark toxicity in human MDA-MB-231 cells assessed as reduction in cell viability by MTT assay; type: cell-based
# MDA-MB-231 = assay: Phototoxicity in human MDA-MB-231 cells assessed as reduction in cell viability pre-incubated for 1 hr before photo-irradiation with 700 mW-630 nm laser light for 15 mins by MTT assay; type: functional, cell-based; settings: MDA-MB-231, light or radiation study
# [2] = Dark toxicity in human MCF7 cells assessed as reduction in cell viability by MTT assay; type: cell-based
# MCF7 [3] = assay: Phototoxicity in human MCF7 cells assessed as reduction in cell viability pre-incubated for 1 hr before photo-irradiation with 700 mW-630 nm laser light for 15 mins by MTT assay; type: functional, cell-based; settings: MCF7, light or radiation study
# [4] = Dark toxicity in human MCF10A cells assessed as reduction in cell viability by MTT assay; type: cell-based, MCF-10A
# MCF-10A = assay: Phototoxicity in human MCF10A cells assessed as reduction in cell viability pre-incubated for 1 hr before photo-irradiation with 700 mW-630 nm laser light for 15 mins by MTT assay; type: cell-based; settings: light or radiation study
# [5] = Dark toxicity in human SCC131 cells assessed as reduction in cell viability by MTT assay; type: cell-based
# [6] = Phototoxicity in human SCC131 cells assessed as reduction in cell viability pre-incubated for 1 hr before photo-irradiation with 700 mW-630 nm laser light for 15 mins by MTT assay; type: functional, cell-based; settings: SCC131, light or radiation study
# [7] = Dark toxicity in human SCC172 cells assessed as reduction in cell viability by MTT assay; type: cell-based
# [8] = Phototoxicity in human SCC172 cells assessed as reduction in cell viability pre-incubated for 1 hr before photo-irradiation with 700 mW-630 nm laser light for 15 mins by MTT assay; type: functional, cell-based; settings: SCC172, light or radiation study
# [9] = Dark toxicity in human HCT116 cells assessed as reduction in cell viability by MTT assay; type: cell-based, HCT-116
# HCT-116 = assay: Phototoxicity in human HCT116 cells assessed as reduction in cell viability pre-incubated for 1 hr before photo-irradiation with 700 mW-630 nm laser light for 15 mins by MTT assay; type: functional, cell-based; settings: HCT-116, light or radiation study
# [10] = Dark toxicity in human HeLa cells assessed as reduction in cell viability by MTT assay; type: cell-based
# HeLa [11] = assay: Phototoxicity in human HeLa cells assessed as reduction in cell viability pre-incubated for 1 hr before photo-irradiation with 700 mW-630 nm laser light for 15 mins by MTT assay; type: functional, cell-based; settings: light or radiation study
# [12] = Dark toxicity in human SiHa cells assessed as reduction in cell viability by MTT assay; type: cell-based
# SiHa = assay: Phototoxicity in human SiHa cells assessed as reduction in cell viability pre-incubated for 1 hr before photo-irradiation with 700 mW-630 nm laser light for 15 mins by MTT assay; type: functional, cell-based; settings: light or radiation study
# [13] = Dark toxicity in human MIAPaCa2 cells assessed as reduction in cell viability by MTT assay; type: cell-based, MIA PaCa-2
# MIA PaCa-2 = assay: Phototoxicity in human MIAPaCa2 cells assessed as reduction in cell viability pre-incubated for 1 hr before photo-irradiation with 700 mW-630 nm laser light for 15 mins by MTT assay; type: functional, cell-based; settings: MIA PaCa-2, light or radiation study
# [14] = Dark toxicity in mouse L5178Y cells assessed as cell viability at 0.5 uM; type: cell-based; settings: read-out: Activity
# L5178Y = assay: Phototoxicity in mouse L5178Y cells assessed as cell viability at 0.5 uM under irradiation by visible light at 337.5 kJ/m2 between 400 to 800 nm; type: functional; settings: light or radiation study, read-out: Activity
# [15] = Dark toxicity in Chinese hamster AS52 cells assessed as cloning efficiency at 1 uM; type: cell-based, Cricetulus griseus
# [16] = Phototoxicity in Chinese hamster AS52 cells assessed as cloning efficiency at 1 uM under irradiation by visible light at 337.5 kJ/m2 between 400 to 800 nm; type: functional, Cricetulus griseus
# [17] = Dark toxicity in human MCF7/DX cells assessed as inhibition of cell growth at 1 uM after 24 hrs by MTT assay; type: cell-based; settings: read-out: GI
# [18] = Phototoxicity in human MCF7/DX cells assessed as inhibition of cell growth at 1 uM pre-incubated for 4 hrs before photoirradiation with 530 to 550 nm light and measured after 24 hrs post irradiation by MTT assay; type: functional; settings: light or radiation study, read-out: GI
# [19] = Phototoxicity in human MCF7/DX cells assessed as inhibition of cell growth at 1 uM pre-incubated for 24 hrs before photoirradiation with 530 to 550 nm light and measured after 24 hrs post irradiation by MTT assay; type: functional; settings: light or radiation study, read-out: GI
# [20] = Phototoxicity in human MCF7/DX cells assessed as inhibition of cell growth at 1 uM pre-incubated for 4 hrs before photoirradiation with 630 nm light and measured after 24 hrs post irradiation by MTT assay; type: functional; settings: light or radiation study, read-out: GI
# [21] = Phototoxicity in human MCF7/DX cells assessed as inhibition of cell growth at 1 uM pre-incubated for 24 hrs before photoirradiation with 630 nm light and measured after 24 hrs post irradiation by MTT assay; type: functional; settings: light or radiation study, read-out: GI
# [22] = Dark toxicity in wild type human MCF7 cells assessed as inhibition of cell growth at 1 uM after 24 hrs by MTT assay; type: cell-based; settings: read-out: GI
# MCF7 [23] = assay: Phototoxicity in wild type human MCF7 cells assessed as inhibition of cell growth at 1 uM pre-incubated for 4 hrs before photoirradiation with 530 to 550 nm light and measured after 24 hrs post irradiation by MTT assay; type: functional; settings: MCF7, light or radiation study, read-out: GI
# MCF7 [24] = assay: Phototoxicity in wild type human MCF7 cells assessed as inhibition of cell growth at 1 uM pre-incubated for 24 hrs before photoirradiation with 530 to 550 nm light and measured after 24 hrs post irradiation by MTT assay; type: functional; settings: MCF7, light or radiation study, read-out: GI
# MCF7 [25] = assay: Phototoxicity in wild type human MCF7 cells assessed as inhibition of cell growth at 1 uM pre-incubated for 4 hrs before photoirradiation with 630 nm light and measured after 24 hrs post irradiation by MTT assay; type: functional; settings: MCF7, light or radiation study, read-out: GI
# MCF7 [26] = assay: Phototoxicity in wild type human MCF7 cells assessed as inhibition of cell growth at 1 uM pre-incubated for 24 hrs before photoirradiation with 630 nm light and measured after 24 hrs post irradiation by MTT assay; type: functional; settings: MCF7, light or radiation study, read-out: GI
# HeLa [27] = assay: Phototoxicity in human HeLa cells assessed as reduction in cell viability in presence of irradiation with 625 nm laser light by MTT assay; type: functional, cell-based; settings: light or radiation study
# [28] = Phototoxicity in human keloid fibroblasts assessed as cell viability at 2 to 8 umol/L pre-incubated for 4 hrs before 0.5 J.cm2 UVA irradiation by MTT assay; type: functional
# [29] = Phototoxicity in human MCF7/DX cells assessed as inhibition of cell growth at 1 uM pre-incubated for 4 hrs before photoirradiation with 430 nm light and measured after 24 hrs post irradiation by MTT assay; type: functional; settings: light or radiation study, read-out: GI
# [30] = Phototoxicity in human MCF7/DX cells assessed as inhibition of cell growth at 1 uM pre-incubated for 24 hrs before photoirradiation with 430 nm light and measured after 24 hrs post irradiation by MTT assay; type: functional; settings: light or radiation study, read-out: GI
# MCF7 [31] = assay: Phototoxicity in wild type human MCF7 cells assessed as inhibition of cell growth at 1 uM pre-incubated for 4 hrs before photoirradiation with 430 nm light and measured after 24 hrs post irradiation by MTT assay; type: functional; settings: MCF7, light or radiation study, read-out: GI
# MCF7 [32] = assay: Phototoxicity in wild type human MCF7 cells assessed as inhibition of cell growth at 1 uM pre-incubated for 24 hrs before photoirradiation with 430 nm light and measured after 24 hrs post irradiation by MTT assay; type: functional; settings: MCF7, light or radiation study, read-out: GI
# HeLa [33] = assay: Phototoxicity in human HeLa cells assessed as reduction in cell viability in presence of irradiation with 700 to 1000 nm near-infrared light; type: functional, cell-based; settings: light or radiation study
# HeLa [34] = assay: Phototoxicity in human HeLa cells assessed as reduction in cell viability in presence of irradiation with white light; type: functional, cell-based; settings: light or radiation study
# [35] = Dark toxicity in mouse B16F10 cells assessed as reduction in cell viability after 24 hrs by MTT assay; type: cell-based, B16-F10
# B16-F10 = assay: Phototoxicity in mouse B16F10 cells assessed as reduction in cell viability under irradiation with >500 nm light after 24 hrs by MTT assay; type: functional, cell-based; settings: B16-F10, light or radiation study
# [36] = Dark toxicity in human C8161 cells assessed as reduction in cell viability after 24 hrs by MTT assay; type: cell-based
# [37] = Phototoxicity in human C8161 cells assessed as reduction in cell viability under irradiation with >500 nm light after 24 hrs by MTT assay; type: functional, cell-based; settings: C8161, light or radiation study
# [38] = Dark toxicity in human PBMC assessed as reduction in cell viability after 24 hrs by MTT assay; type: cell-based
# PBMC [39] = assay: Phototoxicity in human PBMC assessed as reduction in cell viability under irradiation with >500 nm light after 24 hrs by MTT assay; type: cell-based; settings: light or radiation study
# PBMC [40] = assay: Phototoxicity in human PBMC assessed as reduction in cell viability at 20 uM under irradiation with >500 nm light after 24 hrs by MTT assay; type: cell-based
structure (smiles),measurement,setting,value
O=C1C(I)=C(O)C(=C2C(=O)C(c3c(O)c(I)c(O)c(I)c3O)=C2O)C(O)=C1I,IC50,[1],> 50 µM
same,IC50,MDA-MB-231,19.8 µM
same,IC50,[2],> 50 µM
same,IC50,MCF7 [3],25.3 µM
same,IC50,[4],> 50 µM
same,IC50,MCF-10A,44.7 µM
same,IC50,[5],> 50 µM
same,IC50,[6],30.7 µM
same,IC50,[7],> 50 µM
same,IC50,[8],34.7 µM
same,IC50,[9],> 50 µM
same,IC50,HCT-116,26 µM
same,IC50,[10],> 50 µM
same,IC50,HeLa [11],36 µM
same,IC50,[12],> 50 µM
same,IC50,SiHa,33.7 µM
same,IC50,[13],> 50 µM
same,IC50,MIA PaCa-2,28.3 µM
same,viability at 0.5 µM,[14],90%
same,viability at 0.5 µM,L5178Y,< 10%
same,Activity,[15],90%
same,Activity,[16],10%
CCN1/C(=C/C(C)=C/c2sc3ccccc3[n+]2CC)Sc2ccccc21,"inhibition at 24 h, 1 µM",[17],10%
same,inhibition of growth at 1 µM,[18],20%
same,inhibition of growth at 1 µM,[19],20%
same,inhibition of growth at 1 µM,[20],60%
same,inhibition of growth at 1 µM,[21],> 80%
same,"inhibition at 24 h, 1 µM",[22],20%
same,inhibition of growth at 1 µM,MCF7 [23],60%
same,inhibition of growth at 1 µM,MCF7 [24],60%
same,inhibition of growth at 1 µM,MCF7 [25],50%
same,inhibition of growth at 1 µM,MCF7 [26],80%
COC(=O)c1ccc(C2=C3C(Br)=c4sc(-c5ccc(Br)s5)cc4=[N+]3[B-](F)(F)n3c2cc2sc(-c4ccc(Br)s4)cc23)cc1,IC50,HeLa [27],7.12 µM
Nc1ccc(-c2nc3ccccc3s2)cc1,Activity,[28],50%
CCN1C(=O)/C(=C\C=C2/SCCN2C)OC1=S,"inhibition at 24 h, 1 µM",[17],10%
same,inhibition of growth at 1 µM,[29],40%
same,inhibition of growth at 1 µM,[30],10%
same,"inhibition at 24 h, 1 µM",[22],20%
same,inhibition of growth at 1 µM,MCF7 [31],> 40%
same,inhibition of growth at 1 µM,MCF7 [32],20%
Nc1ccc(-c2ccc3nc4ccc(-c5ccc(N)cc5)cc4[s+]c3c2)cc1,EC50,HeLa [33],8 µM
same,EC50,HeLa [34],6 µM
CCN1/C(=C\C=C\c2sc3cc4c(cc3[n+]2CC)sc(/C=C/C=C2\N(CC)c3ccccc3C2(C)C)[n+]4CC)C(C)(C)c2ccccc21,IC50 at 24 h,[35],20 µM
same,IC50,B16-F10,5 µM
same,IC50 at 24 h,[36],20 µM
same,IC50,[37],5 µM
same,IC50 at 24 h,[38],20 µM
same,IC50,PBMC [39],20 µM
same,Activity,PBMC [40],<= 70%
